According to article PMC12169669, “Regio- and Stereoselective Synthesis of Nitro-fatty Acids as NRF2 Pathway Activators Working under Ambient or Hypoxic Conditions” (Journal of Medicinal Chemistry, 2025):

What was measured:
NRF2 [1] = conditions: comparison of positional isomers; literature; cited from earlier work
NRF2 [2] = conditions: colon cancer cell line, versus shorter or longer chain derivatives; literature; cited from earlier work
Gclm and Hmox1 = test system: Gclm and Hmox1; set-up: method as in Khoo et al.; conditions: compared to other derivatives; ref Khoo et al.; cited from earlier work
NRF2 [3] = experiment: Immunocytochemistry of NRF2 in BMCs; format: cell-based, mouse; conditions: 1 h, 1% oxygen
Description: BMCs (2 × 10^6 cells in 300 μL of complete medium) were incubated with 10-NO 2 OA or control medium for 1 h in a 1% oxygen incubator. Cells were then washed with PBS, resuspended in fresh PBS, and plated on an 8-well μ-slide (ibidi, Germany). After allowing cells to settle (10 min), PBS was aspirated, and cells were fixed with 4% paraformaldehyde for 10 min. From this step onward, all work was performed under atmospheric conditions. Cells were washed twice, permeabilized with 0.1% Triton X-100, washed again, and blocked with 1% BSA/PBS. Samples were incubated with primary anti-NRF2 antibody (1:100, SAB4501384, Millipore) overnight at 4 °C. After washing, a secondary Alexa Fluor 647 antibody (1:100, A31573, Invitrogen) was added for 1 h at room temperature in the dark. After washes, nuclei were stained with DAPI (0.5 μg/mL, Merck) for 10 min at room temperature in the dark, washed, and mounted on a microscope slide. Images were acquired with an Olympus FV10i (Olympus, Japan) scanning microscope and analyzed using ImageJ v1.52 (NIH).
5 Subcellular localization of NRF2. NO 2 FA derivatives promote nuclear translocation of NRF2 in mouse BMCs. BMCs were cultured under 1% oxygen conditions and treated for 1 h with 2 μM of 10-NO 2 OA, 10-NO 2 LA, or 10-NO 2 SA. […] Data are expressed as mean ± SD from two independent experiments (n = 2). […]

Structure (SMILES): CCCCCCCC/C=C(\CCCCCCCC(=O)O)[N+](=O)[O-] [9-NO2OA, (9E)-9-Nitro-oleic Acid]
- NRF2 activation (ARE-reporter luciferase) (NRF2 [1]): preferentially activated NRF2 over 10-NO 2 OA
- NRF2 induction (NRF2 [2]): induced NRF2 more robustly

Structure (SMILES): CCCCCCCC/C(=C\CCCCCCCC(=O)O)[N+](=O)[O-] [10-NO2OA, (9E)-10-Nitro-oleic Acid]
- expression of Gclm and Hmox1 (Gclm and Hmox1): induced a higher expression
- colocalization of NRF2 with the nucleus (NRF2 [3]): increased colocalization
